Earlier results, collected in patent US7323476B2, “Myriceric acid derivatives for the treatment of cancer, cardiovascular and inflammatory diseases” (SaviPu Pharmaceuticals, priority 2006, dated 2008).

How the values were obtained:
NF-κB = conditions: qualitative statement on natural products of Fig. R
endothelin receptor = conditions: qualitative, earlier studies

## COc1c(O)cc(O)c2c(=O)cc(-c3ccccc3)oc12 [wogonin]
NF-κB
  inhibition of NF-κB: good activity

## Theaflavin-3,3′-digallate
NF-κB
  inhibition of NF-κB: potent inhibitor

## myriceric acid A [PM2011A]
Endothelin receptor
  binding to the endothelin receptor: already been demonstrated
